Assay results from ChEMBL document CHEMBL1158669, “Cytotoxic scalarane sesterterpenes from a sponge, Hyrtios erecta” (J Nat Prod, 1998).
Values after ≈ are worked out from the molar mass of the structure shown. Values belong to the compound of their own block, whether it stands above or below them.

How the values were obtained:
P388 [1] = experiment: Antitumor activity against mouse P388 cells after 48 hrs by MTT assay; assay type: functional, cell-based; conditions: P388, 48 h
MKN-74 = experiment: Antitumor activity against human MKN74 cells after 48 hrs by MTT assay; assay type: functional, cell-based; conditions: MKN-74, 48 h
P388 [2] = experiment: Antitumor activity against mouse P388 cells implanted in CDF1 mouse assessed as increase in life span at 8.0 mg/kg, ip; assay type: functional; conditions: route intraperitoneal
[3] = Antitumor activity against human MKN1 cells after 48 hrs by MTT assay; assay type: functional, cell-based; conditions: MKN-1, 48 h
P388 [4] = experiment: Antitumor activity against mouse P388 cells implanted in CDF1 mouse assessed as decrease in weight change at 0.5 mg/kg, ip; assay type: functional; set-up: scale not given: the % may be the effect or the level left; conditions: route intraperitoneal
P388 [5] = experiment: Antitumor activity against mouse P388 cells implanted in CDF1 mouse assessed as decrease in weight change at 1.0 mg/kg, ip; assay type: functional; set-up: scale not given: the % may be the effect or the level left; conditions: route intraperitoneal
MKN-7 = experiment: Antitumor activity against human MKN7 cells after 48 hrs by MTT assay; assay type: functional, cell-based; conditions: MKN-7, 48 h
P388 [6] = experiment: Antitumor activity against mouse P388 cells implanted in CDF1 mouse assessed as increase in life span at 4.0 mg/kg, ip; assay type: functional; conditions: route intraperitoneal
P388 [7] = experiment: Antitumor activity against mouse P388 cells implanted in CDF1 mouse assessed as decrease in weight change at 4.0 mg/kg, ip; assay type: functional; set-up: scale not given: the % may be the effect or the level left; conditions: route intraperitoneal
P388 [8] = experiment: Antitumor activity against mouse P388 cells implanted in CDF1 mouse assessed as decrease in weight change at 2.0 mg/kg, ip; assay type: functional; set-up: scale not given: the % may be the effect or the level left; conditions: route intraperitoneal
P388 [9] = experiment: Antitumor activity against mouse P388 cells implanted in CDF1 mouse assessed as decrease in weight change at 8.0 mg/kg, ip; assay type: functional; set-up: scale not given: the % may be the effect or the level left; conditions: route intraperitoneal
P388 [10] = experiment: Antitumor activity against mouse P388 cells implanted in CDF1 mouse assessed as increase in life span at 1.0 mg/kg, ip; assay type: functional; conditions: route intraperitoneal
P388 [11] = experiment: Antitumor activity against mouse P388 cells implanted in CDF1 mouse assessed as increase in life span at 2.0 mg/kg, ip; assay type: functional; conditions: route intraperitoneal
P388 [12] = experiment: Antitumor activity against mouse P388 cells implanted in CDF1 mouse assessed as increase in life span at 0.5 mg/kg, ip; assay type: functional; conditions: route intraperitoneal

Compound: C[C@@H]1C[C@H]1[C@H](C)C[C@@H](O)[C@@]1([C@H]2CC[C@H]3[C@@H]4CC[C@H]5CC(=O)CC[C@]5(C)[C@H]4C[C@@H](O)[C@]23C)CO1 [ARAGUSTEROL A]
IC50 (P388 [1]): 0.022 mg/L (≈ 0.048 µM)

IC50 (P388 [1]): > 1 mg/L
Compound: CC1(C)CCC[C@]2(C)[C@H]3C[C@@H](O)[C@]4(C)[C@@H]5C(=CC[C@H]4[C@]3(C)CC[C@@H]12)CO[C@H]5O

IC50 (P388 [1]): 0.041 mg/L (≈ 0.0828 µM)
Compound: C[C@H](C[C@@H](O)[C@](O)(CCl)[C@H]1CC[C@H]2[C@@H]3CC[C@H]4CC(=O)CC[C@]4(C)[C@H]3C[C@@H](O)[C@]12C)[C@H]1C[C@@H]1C [ARAGUSTEROL C]

IC50 (P388 [1]): > 1 mg/L
Compound: CC1(C)CCC[C@]2(C)[C@H]3C[C@@H](O)[C@]4(C)[C@H]5OC(=O)C=C5[C@@H](O)C[C@H]4[C@]3(C)CC[C@@H]12

IC50 (P388 [1]): > 1 mg/L
Compound: CC(=O)O[C@@H]1C[C@@H]2[C@@]3(C)CCCC(C)(C)[C@@H]3CC[C@@]2(C)[C@@H]2CC=C3C(=O)O[C@@H](O)[C@@H]3[C@@]12C

IC50 (P388 [1]): 0.25 mg/L (≈ 0.618 µM)
Compound: CC1(C)[C@@H](O)CC[C@]2(C)[C@H]3C[C@@H](O)[C@]4(C)[C@@H]5C(=CC[C@H]4[C@]3(C)CC[C@@H]12)CO[C@H]5O

Compound: CC1(C)C(=O)CC[C@]2(C)[C@H]3C[C@@H](O)[C@]4(C)[C@@H]5C(=CC[C@H]4[C@]3(C)CC[C@@H]12)CO[C@H]5O
IC50 (MKN-74): 0.0368 mg/L (≈ 0.0914 µM)
Activity (P388 [2]): 74.4%
IC50 [3]: 0.0577 mg/L (≈ 0.143 µM)
Activity (P388 [4]): 3%
Activity (P388 [5]): 2%
IC50 (MKN-7): 0.056 mg/L (≈ 0.139 µM)
Activity (P388 [6]): 51.2%
Activity (P388 [7]): 0.9%
Activity (P388 [8]): 2.4%
Activity (P388 [9]): 0.4%
IC50 (P388 [1]): 0.0145 mg/L (≈ 0.036 µM)
Activity (P388 [10]): 32.6%
Activity (P388 [11]): 31.4%
Activity (P388 [12]): 24.4%

Compound: C[C@H](CC[C@](C)(O)[C@H]1CC[C@H]2[C@@H]3CC[C@H]4CC(=O)CC[C@]4(C)[C@H]3C[C@@H](O)[C@@]21C)[C@H]1C[C@@H]1C [ARAGUSTEROL B]
IC50 (P388 [1]): > 3.3 mg/L

IC50 (P388 [1]): 0.505 mg/L (≈ 1.13 µM)
Compound: CC(=O)O[C@@H]1C[C@@H]2[C@@]3(C)CC[C@H](O)C(C)(C)[C@@H]3CC[C@@]2(C)[C@@H]2CC=C3CO[C@@H](O)[C@@H]3[C@@]12C
